Experimental data published in article PMC3425516 (PLoS ONE, 2012).
Values joined by “and” are separate entries in the source; they are usually repeats but may differ in a detail not shown here. Equal entries are not always repeated.

Key:
ACHN = assay: NCI-60 cell lines screening; type: cell-based, human; settings: Renal Cancer panel
Description: (§1) The NCI-60 cancer cell lines screening was conducted by the NCI’s Developmental Therapeutics Program (DTP; http://www.dtp.nci.nih.gov/branches/btb/ivclsp.html).

BT-549 = assay: NCI-60 cell lines screening; type: cell-based, human; settings: BT-549, Breast Cancer panel
Description: as §1

DU-145 = assay: NCI-60 cell lines screening; type: cell-based, human; settings: DU-145, Prostate Cancer panel
Description: as §1

HCT-116 = assay: NCI-60 cell lines screening; type: cell-based, human; settings: HCT-116, Colon Cancer panel
Description: as §1

IGROV1 = assay: NCI-60 cell lines screening; type: cell-based, human; settings: IGROV1, Ovarian Cancer panel
Description: as §1

M14 = assay: NCI-60 cell lines screening; type: cell-based, human; settings: M14, Melanoma panel
Description: as §1

MAD-MB-231/ATCC = assay: NCI-60 cell lines screening; type: cell-based, human; settings: Breast Cancer panel
Description: as §1

MDA-MB-468 = assay: NCI-60 cell lines screening; type: cell-based, human; settings: MDA-MB-468, Breast Cancer panel
Description: as §1

NCI-H226 = assay: NCI-60 cell lines screening; type: cell-based, human; settings: NCI-H226, Non-Small Cell Lung Cancer panel
Description: as §1

SF-268 = assay: NCI-60 cell lines screening; type: cell-based, human; settings: SF-268, CNS Cancer panel
Description: as §1

SK-OV-3 = assay: NCI-60 cell lines screening; type: cell-based, human; settings: SK-OV-3, Ovarian Cancer panel
Description: as §1

HCT116 cells [1] = assay: Sulforhodamine B cell growth assay; type: cell-based; settings: Homo sapiens, HCT-116; HCT116, SRB assay, 48 h, mean±S.E.M.; read-out: GI50
Description: (§2) HCT116, MDAMB231 and NCI-ADR cells were seeded in 96-well plates in medium with 5% fetal bovine serum overnight. Cells were fixed with 10% trichloroacetic representing cell population at the time of drug treatment (T 0). […] Excess Sulforhodamine B was washed away by 1% acetic acid and dye-containing cells were lysed with 10 mmol/L Trizma base. […] By measuring time zero (T 0), control growth (C), and cell growth in the presence of the drug (Tx), the percentage growth was calculated. Percentage growth inhibition was calculated as 100-[(Tx–T 0)/(C-T 0)]×100.

MDAMB231 cells = assay: Sulforhodamine B cell growth assay; type: cell-based; settings: Homo sapiens, MDA-MB-231; MDAMB231, SRB assay, 48 h
Description: as §2

NCI-ADR cells = assay: Sulforhodamine B cell growth assay; type: cell-based; settings: Homo sapiens, NCI/ADR-RES, SRB assay, 48 h
Description: as §2

[2] = tested on: HDACs in HeLa nuclear extracts; assay: HeLa nuclear extract HDAC activity assay; type: biochemical
Description: The HeLa nuclear extract HDAC activity was measured by using the HDAC Fluorescent Activity Assay Kit (BioVision, CA, USA) according to manufacturer’s instructions. Briefly, the HDAC fluorometric substrate and assay buffer were added to HeLa nuclear extracts in a 96-well format and incubated at 37°C for 30 min. The reaction was stopped by adding lysine developer, and the mixture was incubated for another 30 min at 37°C. Additional negative controls included incubation without the nuclear extract, without the substrate, or without both. TSA at 1 µM served as the positive control.

[3] = tested on: human HCT116 colorectal cancer xenograft; assay: HCT116 xenograft, tumor growth inhibition after 15 days dosing; type: in vivo, nude mice
Description: The human HCT116 colorectal adenocarcinoma cells used for implantation were harvested during log phase growth and resuspended in phosphate-buffered saline at 5×10^7 cells/mL. Each mouse was injected s.c. in the right flank with 1.0×10^7 cells (0.2 mL cell suspension). Tumors were monitored twice weekly and then daily as their volumes approached 1,200 mm^3. Tumor size, in mm^3, was calculated from: where w = width and l = length in mm of the tumor. Tumor volume = (w^2×l)/2.
The tumor growth curves show the group median tumor volume, on a log scale as a function of time.
Once a tumor was palpable with the size of approximately 55 mm^3, mice were randomized into vehicle control and treatment groups (8 mice per group). Control mice received the vehicle (0.5% carboxymethyl cellulose +0.1% Tween 80). Tumors in all 3 groups were allowed to reach an endpoint volume of 1,200 mm^3.

HCT116 cells [4] = assay: Western blot caspase 3 and PARP; type: cell-based, human; settings: 24 h
Description: For total lysate, cells were lysed with the 120 µL ice-cold lysis buffer [10 mmol/L Tris-HCl (pH 7.4), 150 mmol/L NaCl, 1 mmol/L EGTA, 1 mmol/L phenylmethylsulfonyl fluoride, 10 µg/mL aprotinin, 10 µg/mL leupeptin, 1 mM sodium orthovandate, 1 mM NaF, and 1% Triton X-100]. Cell lysates were centrifuged at 13,000 rpm for 30 min. […] After 1 h incubation at room temperature in PBS/5% nonfat milk, the membrane was washed with PBS/0.1% and incubated with the indicated antibodies at 4°C overnight. After washings with PBS/0.1% Tween 20, the corresponding secondary antibodies were applied to the membranes for 1 h at room temperature. The membranes were then washed with PBS/0.1% Tween 20 and the detection of signal was done with an enhanced chemiluminescence detection kit (Amersham, Buckinghamshire, UK).

recombinant human HDAC1 = recombinant human HDAC1 (Homo sapiens, UniProt Q13547); assay: biochemical
Chain of recombinant human HDAC1 (Q13547 whole entry): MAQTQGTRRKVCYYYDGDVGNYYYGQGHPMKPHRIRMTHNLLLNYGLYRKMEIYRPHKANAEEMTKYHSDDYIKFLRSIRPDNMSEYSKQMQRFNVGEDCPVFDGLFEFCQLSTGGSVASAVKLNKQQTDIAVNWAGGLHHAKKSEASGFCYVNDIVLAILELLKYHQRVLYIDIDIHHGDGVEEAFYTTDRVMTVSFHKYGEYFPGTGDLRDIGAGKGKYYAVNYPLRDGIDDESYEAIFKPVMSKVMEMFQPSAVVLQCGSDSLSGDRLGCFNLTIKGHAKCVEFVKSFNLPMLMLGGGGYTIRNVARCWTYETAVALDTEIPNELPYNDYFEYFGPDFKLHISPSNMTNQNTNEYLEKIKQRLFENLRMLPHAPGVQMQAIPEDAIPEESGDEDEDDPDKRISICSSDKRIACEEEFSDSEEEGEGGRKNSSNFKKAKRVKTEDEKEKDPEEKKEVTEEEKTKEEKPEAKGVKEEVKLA
Description: (§3) The HDACs in vitro activities of recombinant human HDAC 1, 2, 4, 6 and 8 (BPS Biosciences) were detected by fluorigenic release of 7-amino-4-methylcoumarin from substrate upon deacetylase enzymatic activity.

recombinant human HDAC8 = recombinant human HDAC8 (Homo sapiens, UniProt Q9BY41); assay: biochemical
Chain of recombinant human HDAC8 (Q9BY41 whole entry): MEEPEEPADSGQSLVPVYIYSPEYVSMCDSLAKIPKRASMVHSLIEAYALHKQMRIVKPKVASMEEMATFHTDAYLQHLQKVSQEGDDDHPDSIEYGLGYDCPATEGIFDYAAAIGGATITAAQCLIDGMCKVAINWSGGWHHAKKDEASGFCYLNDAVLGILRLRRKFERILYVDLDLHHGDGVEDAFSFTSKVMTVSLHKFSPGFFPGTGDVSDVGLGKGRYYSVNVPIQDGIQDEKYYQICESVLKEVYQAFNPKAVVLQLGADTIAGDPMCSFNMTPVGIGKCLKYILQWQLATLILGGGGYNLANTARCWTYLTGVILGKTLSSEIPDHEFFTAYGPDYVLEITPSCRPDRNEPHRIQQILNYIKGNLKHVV
Description: as §3

recombinant human HDAC4 = recombinant human HDAC4 (Homo sapiens, UniProt P56524); assay: biochemical
Chain of recombinant human HDAC4 (P56524 whole entry): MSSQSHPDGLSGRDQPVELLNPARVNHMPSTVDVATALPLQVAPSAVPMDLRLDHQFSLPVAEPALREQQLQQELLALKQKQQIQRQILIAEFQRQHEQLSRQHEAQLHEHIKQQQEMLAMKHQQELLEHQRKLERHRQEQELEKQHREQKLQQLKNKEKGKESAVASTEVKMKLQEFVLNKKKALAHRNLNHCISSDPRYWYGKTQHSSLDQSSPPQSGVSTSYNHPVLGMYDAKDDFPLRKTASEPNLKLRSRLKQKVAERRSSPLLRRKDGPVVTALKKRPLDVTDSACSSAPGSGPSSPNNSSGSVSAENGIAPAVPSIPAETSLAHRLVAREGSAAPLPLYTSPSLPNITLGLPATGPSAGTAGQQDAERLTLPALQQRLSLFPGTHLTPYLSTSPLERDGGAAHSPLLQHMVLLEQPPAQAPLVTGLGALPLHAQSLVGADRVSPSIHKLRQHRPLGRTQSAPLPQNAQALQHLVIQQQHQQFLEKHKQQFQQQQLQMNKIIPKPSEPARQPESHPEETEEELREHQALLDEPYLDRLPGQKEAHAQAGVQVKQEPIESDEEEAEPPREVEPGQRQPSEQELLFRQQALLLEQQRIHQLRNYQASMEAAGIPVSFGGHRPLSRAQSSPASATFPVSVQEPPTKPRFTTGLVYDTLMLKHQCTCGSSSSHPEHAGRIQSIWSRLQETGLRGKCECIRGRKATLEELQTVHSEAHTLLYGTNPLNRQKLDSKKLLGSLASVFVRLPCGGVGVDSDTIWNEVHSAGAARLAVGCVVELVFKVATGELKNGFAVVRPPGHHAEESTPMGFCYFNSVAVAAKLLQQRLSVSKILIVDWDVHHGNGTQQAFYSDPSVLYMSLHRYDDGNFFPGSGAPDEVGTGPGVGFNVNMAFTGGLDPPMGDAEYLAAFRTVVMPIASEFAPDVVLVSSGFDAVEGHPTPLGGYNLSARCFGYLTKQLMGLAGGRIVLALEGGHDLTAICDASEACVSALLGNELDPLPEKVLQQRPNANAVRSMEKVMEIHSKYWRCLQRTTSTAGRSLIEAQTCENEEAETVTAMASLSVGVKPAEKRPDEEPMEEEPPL
Description: as §3

[5] = Homo sapiens, read-out: LC50 (the source's name)

SMILES: O=C(C=Cc1ccc2c(c1)CCN2S(=O)(=O)c1ccccc1)NO [MPT0E028, 3-(1-benzenesulfonyl-2,3-dihydro-1H-indol-5-yl)-N-hydroxy-acrylamide]
- GI50 (ACHN; Homo sapiens): 167 nM
- CC50 (ACHN; [5]): 4080 nM
- TGI (ACHN): 576 nM
- TGI (BT-549): 5840 nM
- GI50 (BT-549; Homo sapiens): 680 nM
- CC50 (BT-549; [5]): > 100000 nM
- TGI (DU-145): 1920 nM
- GI50 (DU-145; Homo sapiens): 179 nM
- CC50 (DU-145; [5]): > 100000 nM
- TGI (HCT-116): 204 nM
- GI50 (HCT-116; Homo sapiens): 56.3 nM
- CC50 (HCT-116; [5]): 566 nM
- GI50 (IGROV1; Homo sapiens, IGROV-1): 183 nM
- CC50 (IGROV1; Homo sapiens, IGROV-1, read-out: LC50 (the source's name)): 2390 nM
- TGI (IGROV1): 533 nM
- GI50 (M14; Homo sapiens): 179 nM
- CC50 (M14; [5]): 6450 nM
- TGI (M14): 1110 nM
- TGI (MAD-MB-231/ATCC): 822 nM
- GI50 (MAD-MB-231/ATCC; Homo sapiens): 241 nM
- CC50 (MAD-MB-231/ATCC; [5]): 20400 nM
- GI50 (MDA-MB-468; Homo sapiens): 196 nM
- CC50 (MDA-MB-468; [5]): 6310 nM
- TGI (MDA-MB-468): 1150 nM
- GI50 (NCI-H226; Homo sapiens): 1240 nM
- CC50 (NCI-H226; [5]): 19000 nM
- TGI (NCI-H226): 3880 nM
- GI50 (SF-268; Homo sapiens): 464 nM
- CC50 (SF-268; [5]): 70400 nM
- TGI (SF-268): 3400 nM
- GI50 (SK-OV-3; Homo sapiens): 190 nM
- CC50 (SK-OV-3; [5]): 4260 nM
- TGI (SK-OV-3): 601 nM
- GI50 (HCT116 cells [1]): 90 ± 4 nM
- GI50 (MDAMB231 cells): 190 ± 40 nM
- GI50 (NCI-ADR cells): 140 ± 20 nM
- times more potent than SAHA in HDAC activity inhibition ([2]; HeLa and HCT116 cells, relative to SAHA): 9–30 times and 10–30 times
- IC50 ([2]; HeLa nuclear extract): 11.1 nM
- percent tumor growth inhibition (%TGI) ([3]; 100 mg/kg oral once a day for 15 days): 32.0%
- percent tumor growth inhibition (%TGI) ([3]; 200 mg/kg oral once a day for 15 days): 73.5%
- caspase 3 and PARP activation (western blot) (HCT116 cells [4]): induced caspase 3 and PARP activation in a concentration-dependent manner
- IC50 (recombinant human HDAC1): 53 ± 12 nM
- IC50 (recombinant human HDAC8): 2530 ± 315 nM
- IC50 (recombinant human HDAC4): > 10000 nM
